Measured values taken from publication PMC5909442 (Nucleic Acids Research, 2018).

Key:
[1] = molecular target: Mtb HpoR (Rv0767c); HpoRMtb (Mycobacterium tuberculosis, UniProt P9WMD7)
HpoR (Ms5860) = molecular target: T1, HpoR (Ms5860) (Mycolicibacterium smegmatis, UniProt A0R4J9); test: isothermal titration calorimetry; type: binding
T1 sequence (A0R4J9 1-199): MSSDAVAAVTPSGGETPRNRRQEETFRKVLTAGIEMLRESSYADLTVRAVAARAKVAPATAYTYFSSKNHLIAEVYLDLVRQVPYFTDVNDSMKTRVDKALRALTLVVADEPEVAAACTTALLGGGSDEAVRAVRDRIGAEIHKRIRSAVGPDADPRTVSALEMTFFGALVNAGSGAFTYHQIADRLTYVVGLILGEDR

[2] = system: HpoR (HpoRMS) (Mycobacterium smegmatis mc2 155); test: SPR

Mtb HpoR (Rv0767c); HpoRMtb, sequence (P9WMD7 whole entry): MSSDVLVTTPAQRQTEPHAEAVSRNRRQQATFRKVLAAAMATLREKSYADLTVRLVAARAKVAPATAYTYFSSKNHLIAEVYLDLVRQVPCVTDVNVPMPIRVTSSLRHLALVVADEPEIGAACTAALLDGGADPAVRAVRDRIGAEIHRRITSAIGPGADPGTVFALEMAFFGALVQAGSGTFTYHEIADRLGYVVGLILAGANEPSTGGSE

Nc1nc2c(ncn2[C@@H]2O[C@@H]3COP(=O)(O)O[C@H]4[C@@H](O)[C@H](n5cnc6c(=O)[nH]c(N)nc65)O[C@@H]4COP(=O)(O)O[C@H]3[C@H]2O)c(=O)[nH]1 [c-di-GMP]
UV cross-linking with radiolabelled ligand, SDS-PAGE autoradiography [1]: Mtb HpoR (Rv0767c) showed a good binding ability for c-di-GMP | Kd (HpoR (Ms5860)): 1780 ± 230 nM

Ms5860p, biotin-labeled
binding signal [2]: 150 RU
